In patent US6355799B1, “Substituted benzene compounds, process for their preparation, and herbicidal and defoliant compositions containing them” (ISK Americas Incorporated, priority 1997, dated 2002):

How the values were obtained:
Format in all cases: in vivo
[1] = tested on: barnyardgrass (Echinochloa crus-galli, ECHCG); test: Pre-emerge test, greenhouse herbicide activity screening; settings: pre-emerge, 14 days after application, scale 0-100
How it was run: (§1)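 Applied at 15–1000 g ai/ha from acetone in 187 l/ha spray volume. Post-emergence applications included 0.25% v/v non-ionic surfactant and reached plants sown 8–21 days before. Pre-emergence applications were incorporated by surface watering. Efficacy or crop damage was rated on a 0–100 scale after 14 days.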

[2] = tested on: velvetleaf (Abutilon theophrasti, ABUTH); test: as above; settings: pre-emerge, 14 days after application, scale 0-100
How it was run: as §1

[3] = tested on: large crabgrass (Digitaria sanguinalis, DIGSA); test: as above; settings: pre-emerge, 14 days after application, scale 0-100
How it was run: as §1

[4] = tested on: sicklepod (Cassia obtusifolia, CASOB); test: as above; settings: pre-emerge, 14 days after application, scale 0-100
How it was run: as §1

[5] = tested on: green foxtail (Setaria viridis, SETVI); test: as above; settings: pre-emerge, 14 days after application, scale 0-100
How it was run: as §1

[6] = tested on: ivyleaf morningglory (Ipomoea hederacea, IPOHE); test: as above; settings: pre-emerge, 14 days after application, scale 0-100
How it was run: as §1

[7] = tested on: lambsquarters (Chenopodium album, CHEAL); test: as above; settings: pre-emerge, 14 days after application, scale 0-100
How it was run: as §1

[8] = tested on: johnsongrass (Sorghum halepense, SORHA); test: as above; settings: pre-emerge, 14 days after application, scale 0-100
How it was run: as §1

[9] = tested on: redroot pigweed (Amaranthus retroflexus, AMARE); test: as above; settings: pre-emerge, 14 days after application, scale 0-100
How it was run: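 Visual ratings on a 0-100 scale (0 no damage, 100 all plants dead) were taken at 14 days after treatment. Rates of 15-1000 g ai/ha in acetone, 187 l/ha, were sprayed onto soil one day after planting (pre-emerge) or onto 2-3 leaf plants with 0.25% v/v surfactant (post-emerge).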

[10] = tested on: upland rice (Oryza sp., var. Tebonnet, RICE); test: Post-emerge test, crop safety; settings: post-emerge, 14 days after application, rating scale 0-100
How it was run: as §1

[11] = tested on: field corn (Zea mays L., var. Dekalb 535, CORN); test: Post-emerge test, crop safety; settings: post-emerge, 14 days after application, rating scale 0-100
How it was run: as §1

[12] = tested on: barnyardgrass (Echinochloa crus-galli, ECHCG); test: Post-emerge test, greenhouse herbicide activity screening; settings: post-emerge, 14 days after application, rating scale 0-100
How it was run: (§2)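 Fourteen days after spraying, crop and weed injury was graded visually from 0, no effect, to 100, every plant dead. Test substances were dissolved in acetone and applied at 15–1000 g ai/ha with a flat-fan nozzle. Application was either pre-emergence, one day after sowing, or post-emergence at the 2–3 leaf stage.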

[13] = tested on: velvetleaf (Abutilon theophrasti, ABUTH); test: as above; settings: post-emerge, 14 days after application, rating scale 0-100
How it was run: as §2

[14] = tested on: redroot pigweed (Amaranthus retroflexus, AMARE); test: as above; settings: post-emerge, 14 days after application, rating scale 0-100
How it was run: as §2

[15] = tested on: large crabgrass (Digitaria sanguinalis, DIGSA); test: as above; settings: post-emerge, 14 days after application, rating scale 0-100
How it was run: as §2

[16] = tested on: sicklepod (Cassia obtusifolia, CASOB); test: as above; settings: post-emerge, 14 days after application, rating scale 0-100
How it was run: as §2

[17] = tested on: green foxtail (Setaria viridis, SETVI); test: as above; settings: post-emerge, 14 days after application, rating scale 0-100
How it was run: as §2

[18] = tested on: ivyleaf morningglory (Ipomoea hederacea, IPOHE); test: as above; settings: post-emerge, 14 days after application, rating scale 0-100
How it was run: as §2

[19] = tested on: lambsquarters (Chenopodium album, CHEAL); test: as above; settings: post-emerge, 14 days after application, rating scale 0-100
How it was run: as §2

[20] = tested on: johnsongrass (Sorghum halepense, SORHA); test: as above; settings: post-emerge, 14 days after application, rating scale 0-100
How it was run: as §2

[21] = tested on: upland rice (Oryza sp., var. Tebonnet, RICE); test: Pre-emerge test, crop safety; settings: pre-emerge, 14 days after application, scale 0-100
How it was run: (§3)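 Sandy loam pots; pre-emerge: sown 1 d pre-spray, surface-watered after, then bottom-watered. Post-emerge: sown 8–21 d before, 2–3 leaf stage, + 0.25% v/v NIS, bottom-watered. Acetone, 187 l/ha track spray, 15–1000 g ai/ha. 0–100 injury score, day 14.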

[22] = tested on: field corn (Zea mays L., var. Dekalb 535, CORN); test: Pre-emerge test, crop safety; settings: pre-emerge, 14 days after application, scale 0-100
How it was run: as §3

CCOC(=O)CSCC(=O)Nc1c(OC)c(Cl)cc(F)c1-n1c(=O)cc(C(F)(F)F)n(C)c1=O [2-170]
phytotoxicity rating ECHCG ([1]; 63 g ai/ha): 0 | phytotoxicity rating ECHCG ([1]; 250 g ai/ha): 50 | phytotoxicity rating ABUTH ([2]; 63 g ai/ha): 90 | phytotoxicity rating ABUTH ([2]; 250 g ai/ha): 100 | phytotoxicity rating DIGSA ([3]; 63 g ai/ha): 30 | phytotoxicity rating DIGSA ([3]; 250 g ai/ha): 90 | phytotoxicity rating CASOB ([4]; 63 g ai/ha): 30 | phytotoxicity rating CASOB ([4]; 250 g ai/ha): 60 | phytotoxicity rating SETVI ([5]; 63 g ai/ha): 60 | phytotoxicity rating SETVI ([5]; 250 g ai/ha): 90 | phytotoxicity rating IPOHE ([6]; 63 g ai/ha): 40 | phytotoxicity rating IPOHE ([6]; 250 g ai/ha): 70 | phytotoxicity rating CHEAL ([7]; 63 g ai/ha): 100 | phytotoxicity rating CHEAL ([7]; 250 g ai/ha): 100 | phytotoxicity rating SORHA ([8]; 63 g ai/ha): 20 | phytotoxicity rating SORHA ([8]; 250 g ai/ha): 80 | phytotoxicity rating AMARE ([9]; 63 g ai/ha): 70 | phytotoxicity rating AMARE ([9]; 250 g ai/ha): 100 | RICE phytotoxicity rating (crop damage) ([10]; 63 g ai/ha): 5 | RICE phytotoxicity rating (crop damage) ([10]; 250 g ai/ha): 10 | CORN phytotoxicity rating (crop damage) ([11]; 63 g ai/ha): 5 | CORN phytotoxicity rating (crop damage) ([11]; 250 g ai/ha): 15 | ECHCG phytotoxicity rating ([12]; 63 g ai/ha): 0 | ECHCG phytotoxicity rating ([12]; 250 g ai/ha): 20 | ABUTH phytotoxicity rating ([13]; 63 g ai/ha): 35 | ABUTH phytotoxicity rating ([13]; 250 g ai/ha): 90 | AMARE phytotoxicity rating ([14]; 63 g ai/ha): 20 | AMARE phytotoxicity rating ([14]; 250 g ai/ha): 30 | DIGSA phytotoxicity rating ([15]; 63 g ai/ha): 0 | DIGSA phytotoxicity rating ([15]; 250 g ai/ha): 30 | CASOB phytotoxicity rating ([16]; 63 g ai/ha): 10 | CASOB phytotoxicity rating ([16]; 250 g ai/ha): 60 | SETVI phytotoxicity rating ([17]; 63 g ai/ha): 10 | SETVI phytotoxicity rating ([17]; 250 g ai/ha): 20 | IPOHE phytotoxicity rating ([18]; 63 g ai/ha): 50 | IPOHE phytotoxicity rating ([18]; 250 g ai/ha): 95 | CHEAL phytotoxicity rating ([19]; 63 g ai/ha): 60 | CHEAL phytotoxicity rating ([19]; 250 g ai/ha): 50 | SORHA phytotoxicity rating ([20]; 63 g ai/ha): 0 | SORHA phytotoxicity rating ([20]; 250 g ai/ha): 10 | phytotoxicity rating RICE (crop damage) ([21]; 63 g ai/ha): 10 | phytotoxicity rating RICE (crop damage) ([21]; 250 g ai/ha): 0 | phytotoxicity rating CORN (crop damage) ([22]; 63 g ai/ha): 10 | phytotoxicity rating CORN (crop damage) ([22]; 250 g ai/ha): 15

CCOC(=O)C(C)SCC(=O)Nc1c(OC)c(Cl)cc(F)c1-n1c(=O)cc(C(F)(F)F)n(C)c1=O (stereo not shown) [2-171]
phytotoxicity rating ECHCG ([1]; 63 g ai/ha): 0 | phytotoxicity rating ECHCG ([1]; 250 g ai/ha): 10 | phytotoxicity rating ABUTH ([2]; 63 g ai/ha): 90 | phytotoxicity rating ABUTH ([2]; 250 g ai/ha): 100 | phytotoxicity rating DIGSA ([3]; 63 g ai/ha): 20 | phytotoxicity rating DIGSA ([3]; 250 g ai/ha): 80 | phytotoxicity rating CASOB ([4]; 63 g ai/ha): 10 | phytotoxicity rating CASOB ([4]; 250 g ai/ha): 30 | phytotoxicity rating SETVI ([5]; 63 g ai/ha): 30 | phytotoxicity rating SETVI ([5]; 250 g ai/ha): 90 | phytotoxicity rating IPOHE ([6]; 63 g ai/ha): 10 | phytotoxicity rating IPOHE ([6]; 250 g ai/ha): 60 | phytotoxicity rating CHEAL ([7]; 63 g ai/ha): 70 | phytotoxicity rating CHEAL ([7]; 250 g ai/ha): 100 | phytotoxicity rating SORHA ([8]; 63 g ai/ha): 10 | phytotoxicity rating SORHA ([8]; 250 g ai/ha): 30 | phytotoxicity rating AMARE ([9]; 63 g ai/ha): 50 | phytotoxicity rating AMARE ([9]; 250 g ai/ha): 100 | RICE phytotoxicity rating (crop damage) ([10]; 63 g ai/ha): 0 | RICE phytotoxicity rating (crop damage) ([10]; 250 g ai/ha): 10 | CORN phytotoxicity rating (crop damage) ([11]; 63 g ai/ha): 0 | CORN phytotoxicity rating (crop damage) ([11]; 250 g ai/ha): 10 | ECHCG phytotoxicity rating ([12]; 63 g ai/ha): 0 | ECHCG phytotoxicity rating ([12]; 250 g ai/ha): 0 | ABUTH phytotoxicity rating ([13]; 63 g ai/ha): 60 | ABUTH phytotoxicity rating ([13]; 250 g ai/ha): 100 | AMARE phytotoxicity rating ([14]; 63 g ai/ha): 30 | AMARE phytotoxicity rating ([14]; 250 g ai/ha): 50 | DIGSA phytotoxicity rating ([15]; 63 g ai/ha): 0 | DIGSA phytotoxicity rating ([15]; 250 g ai/ha): 10 | CASOB phytotoxicity rating ([16]; 63 g ai/ha): 30 | CASOB phytotoxicity rating ([16]; 250 g ai/ha): 40 | SETVI phytotoxicity rating ([17]; 63 g ai/ha): 0 | SETVI phytotoxicity rating ([17]; 250 g ai/ha): 10 | IPOHE phytotoxicity rating ([18]; 63 g ai/ha): 60 | IPOHE phytotoxicity rating ([18]; 250 g ai/ha): 100 | CHEAL phytotoxicity rating ([19]; 63 g ai/ha): 40 | CHEAL phytotoxicity rating ([19]; 250 g ai/ha): 90 | SORHA phytotoxicity rating ([20]; 63 g ai/ha): 0 | SORHA phytotoxicity rating ([20]; 250 g ai/ha): 10 | phytotoxicity rating RICE (crop damage) ([21]; 63 g ai/ha): 0 | phytotoxicity rating RICE (crop damage) ([21]; 250 g ai/ha): 10 | phytotoxicity rating CORN (crop damage) ([22]; 63 g ai/ha): 0 | phytotoxicity rating CORN (crop damage) ([22]; 250 g ai/ha): 0
